US20220324835A1 (Nurix Therapeutics, Inc., priority 2018, published 2022)

How the values were obtained:
Cbl-b (residues 36-427) = Cbl-b (residues 36-427) (Homo sapiens, UniProt Q13191); experiment: Cbl-b binding assay (SPR, Biacore T200); settings: 20° C., 1:1 binding model
In short: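 Steps: capture protein on NeutrAvidin surface; inject compound dilutions (8 or 10 points from 100 or 50 μM) 50 s; allow 90-180 s dissociation; regenerate 20 s with 0.3 M NaCl. Runs at 20° C in HEPES pH 7.5/100 mM NaCl/2% DMSO; 1:1 fitting.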

T-cell [1] = experiment: IL-2 secretion from T-cells stimulated with anti-CD3 antibody alone (Biological Example 2); assay type: cell-based, human; settings: T-cell, fold change over baseline, primary human total T-cells, read-out: IL-2 secretion Anti-CD3 stimulation; for fold induction at 1 µM: 1 μM Cbl-b inhibitor; for fold induction at 8 µM: 8 μM Cbl-b inhibitor
T-cell [2] = experiment: IL-2 secretion from T-cells co-stimulated with anti-CD3 and anti-CD28 antibody (Biological Example 2); assay type: cell-based, human; settings: Homo sapiens, T-cell, primary human total T-cells
In short: (§1)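 T-cells were stimulated with anti-CD3 antibody alone or with anti-CD28 antibody, in the presence or absence of Cbl-b inhibitor. IL-2 secretion or CD25 surface staining was measured, and values expressed as fold over the uninhibited baseline […].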

T-cell [3] = experiment: CD25 cell surface staining on T-cells co-stimulated with anti-CD3 and anti-CD28 antibody (Biological Example 2); assay type: cell-based, human; settings: Homo sapiens, T-cell, primary human total T-cells
In short: as §1

[4] = fold change over baseline, 0.3 μM Cbl-b inhibitor, read-out: IL-2 secretion Anti-CD3/Anti-CD28 stimulation
[5] = fold change over baseline, 1 μM Cbl-b inhibitor, read-out: IL-2 secretion Anti-CD3/Anti-CD28 stimulation
[6] = fold change over baseline, 4 μM Cbl-b inhibitor, read-out: IL-2 secretion Anti-CD3/Anti-CD28 stimulation
[7] = fold change over baseline, 0.3 μM Cbl-b inhibitor, read-out: CD25 staining Anti-CD3/Anti-CD28 stimulation
[8] = fold change over baseline, 1 μM Cbl-b inhibitor, read-out: CD25 staining Anti-CD3/Anti-CD28 stimulation
[9] = fold change over baseline, 4 μM Cbl-b inhibitor, read-out: CD25 staining Anti-CD3/Anti-CD28 stimulation
[10] = 0.3 μM compound, baseline = anti-CD3/anti-CD28 stimulated cells without inhibitor, read-out: IL-2 secretion, Anti-CD3/Anti-CD28 stimulation, fold change over baseline
[11] = 1 μM compound, baseline = anti-CD3/anti-CD28 stimulated cells without inhibitor, read-out: IL-2 secretion, Anti-CD3/Anti-CD28 stimulation, fold change over baseline
[12] = 4 μM compound, baseline = anti-CD3/anti-CD28 stimulated cells without inhibitor, read-out: IL-2 secretion, Anti-CD3/Anti-CD28 stimulation, fold change over baseline
[13] = 0.3 μM compound, baseline = anti-CD3/anti-CD28 stimulated cells without inhibitor, read-out: CD25 staining, Anti-CD3/Anti-CD28 stimulation, fold change over baseline
[14] = 1 μM compound, baseline = anti-CD3/anti-CD28 stimulated cells without inhibitor, read-out: CD25 staining, Anti-CD3/Anti-CD28 stimulation, fold change over baseline
[15] = 4 μM compound, baseline = anti-CD3/anti-CD28 stimulated cells without inhibitor, read-out: CD25 staining, Anti-CD3/Anti-CD28 stimulation, fold change over baseline

Sequence of Cbl-b (residues 36-427) (Q13191 36-427): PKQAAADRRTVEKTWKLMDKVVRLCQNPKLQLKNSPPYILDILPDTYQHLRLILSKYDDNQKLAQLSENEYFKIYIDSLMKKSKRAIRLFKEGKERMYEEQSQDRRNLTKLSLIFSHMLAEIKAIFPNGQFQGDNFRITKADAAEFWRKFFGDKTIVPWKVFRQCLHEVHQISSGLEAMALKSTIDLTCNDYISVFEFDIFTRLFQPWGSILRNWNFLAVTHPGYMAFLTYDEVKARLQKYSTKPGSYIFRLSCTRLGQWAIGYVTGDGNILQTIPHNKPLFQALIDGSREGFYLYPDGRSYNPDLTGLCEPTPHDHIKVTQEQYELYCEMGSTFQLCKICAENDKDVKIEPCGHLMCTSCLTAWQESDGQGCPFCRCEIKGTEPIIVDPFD

Row | SMILES | Kd (Cbl-b (residues 36-427)) | fold induction at 1 µM (T-cell [1]) | fold induction at 8 µM (T-cell [1]) | fold induction at 0.3 µM (T-cell [2]; [4]) | fold induction at 1 µM (T-cell [2]; [5]) | fold induction at 4 µM (T-cell [2]; [6]) | fold induction at 0.3 µM (T-cell [3]; [7]) | fold induction at 1 µM (T-cell [3]; [8]) | fold induction at 4 µM (T-cell [3]; [9]) | fold induction at 0.3 µM (T-cell [2]; [10]) | fold induction at 1 µM (T-cell [2]; [11]) | fold induction at 4 µM (T-cell [2]; [12]) | fold induction at 0.3 µM (T-cell [3]; [13]) | fold induction at 1 µM (T-cell [3]; [14]) | fold induction at 4 µM (T-cell [3]; [15])
1 | Cn1cnnc1C(F)(F)C(C)(F)c1cccc(N2Cc3c(cccc3C(F)(F)F)C2=O)c1 (racemic) [Compound 296, 2-(3-(1,1,2-trifluoro-1-(4-methyl-4H-1,2,4-triazol-3-yl)propan-2-yl)phenyl)-4-(trifluoromethyl)isoindolin-1-one] | 3000 to 10000 nM | > 0.201 | > 0.201 | < 1 | < 1 | 1.01 to 2.5 | 1.01 to 1.3 | 1.01 to 1.3 | 1.01 to 1.3 | – | – | – | – | – | –
2 | Cn1cnnc1CC(C)(F)c1cccc(N2Cc3c(cccc3C(F)(F)F)C2=O)c1 (racemic) [Compound 298, 2-(3-(2-fluoro-1-(4-methyl-4H-1,2,4-triazol-3-yl)propan-2-yl)phenyl)-4-(trifluoromethyl)isoindolin-1-one] | < 100 nM | 0.051 to 0.1 | 0.101 to 0.15 | 5 to 7.5 | 5 to 7.5 | > 7.5 | < 1 | 1.01 to 1.3 | 1.01 to 1.3 | – | – | – | – | – | –
3 | C[C@H](Cc1nncn1C)c1cc(N[C@@H]2CCOC2)nc(N2Cc3c(cccc3C(F)(F)F)C2=O)c1 (stereo in doubt) [Compound 362, 2-(4-((R)-1-(4-methyl-4H-1,2,4-triazol-3-yl)propan-2-yl)-6-((S)-THF-3-ylamino)pyridin-2-yl)-4-(trifluoromethyl)isoindolin-1-one] | 100 to 300 nM | 0.051 to 0.1 | 0.101 to 0.15 | 1.01 to 2.5 | 1.01 to 2.5 | 1.01 to 2.5 | < 1 | 1.01 to 1.3 | 1.01 to 1.3 | – | – | – | – | – | –
4 | Cc1cc(C(=O)Nc2cccc([C@H](C)Sc3nncn3C)c2)nc2ccccc12 [Compound 30, (S)-4-Methyl-N-(3-(1-((4-methyl-4H-1,2,4-triazol-3-yl)thio)ethyl)phenyl)quinoline-2-carboxamide] | 1000 to 3000 nM | 0.051 to 0.1 | 0.101 to 0.15 | 1.01 to 2.5 | 1.01 to 2.5 | 2.51 to 5 | 1.01 to 1.3 | 1.01 to 1.3 | 1.01 to 1.3 | – | – | – | – | – | –
5 | C[C@H](Sc1nncn1C)c1cccc(NC(=O)c2cc(C(F)(F)F)ccn2)c1 [Compound 32, (S)-N-(3-(1-((4-Methyl-4H-1,2,4-triazol-3-yl)thio)ethyl)phenyl)-4-(trifluoromethyl)picolinamide] | 1000 to 3000 nM | < 0.05 | 0.101 to 0.15 | < 1 | 1.01 to 2.5 | 1.01 to 2.5 | 1.01 to 1.3 | 1.01 to 1.3 | 1.01 to 1.3 | – | – | – | – | – | –
6 | CC(C)c1cccc(C(=O)Nc2cccc([C@H](C)Sc3nncn3C)c2)n1 [Compound 33, (S)-6-Isopropyl-N-(3-(1-((4-methyl-4H-1,2,4-triazol-3-yl)thio)ethyl)phenyl)picolinamide] | 301 to 1000 nM | < 0.05 | < 0.05 | 2.51 to 5 | 2.51 to 5 | > 7.5 | 1.01 to 1.3 | 1.01 to 1.3 | 1.01 to 1.3 | – | – | – | – | – | –
7 | Cc1ccc(C(=O)Nc2cccc([C@H](C)Sc3nncn3C)c2)nc1C [Compound 35, (S)-5,6-Dimethyl-N-(3-(1-((4-methyl-4H-1,2,4-triazol-3-yl)thio)ethyl)phenyl)picolinamide] | 3000 to 10000 nM | < 0.05 | > 0.201 | 1.01 to 2.5 | 2.51 to 5 | 2.51 to 5 | < 1 | 1.01 to 1.3 | 1.31 to 1.5 | – | – | – | – | – | –
8 | Cc1cccc2nc(C(=O)Nc3cccc([C@H](C)Sc4nncn4C)c3)ccc12 [Compound 48, 5-Methyl-N-[3-[(1S)-1-[(4-methyl-4H-1,2,4-triazol-3-yl)sulfanyl]ethyl]phenyl]quinoline-2-carboxamide] | 1000 to 3000 nM | < 0.05 | 0.101 to 0.15 | 2.51 to 5 | 5 to 7.5 | > 7.5 | 1.01 to 1.3 | 1.01 to 1.3 | 1.01 to 1.3 | – | – | – | – | – | –
9 | C[C@H](Sc1nncn1C)c1cccc(NC(=O)c2ccc(Cl)c(C(F)(F)F)n2)c1 [Compound 51, (S)-5-chloro-N-(3-(1-((4-methyl-4H-1,2,4-triazol-3-yl)thio)ethyl)phenyl)-6-(trifluoromethyl)picolinamide] | 301 to 1000 nM | < 0.05 | < 0.05 | < 1 | < 1 | 1.01 to 2.5 | 1.01 to 1.3 | 1.01 to 1.3 | 1.01 to 1.3 | – | – | – | – | – | –
10 | C[C@H](Sc1nncn1C)c1cccc(NC(=O)c2cc(C(C)(C)O)c(Cl)cn2)c1 [Compound 55, (S)-5-chloro-4-(2-hydroxypropan-2-yl)-N-(3-(1-((4-methyl-4H-1,2,4-triazol-3-yl)thio)ethyl)phenyl)picolinamide] | 1000 to 3000 nM | < 0.05 | < 0.05 | 1.01 to 2.5 | 1.01 to 2.5 | 1.01 to 2.5 | 1.01 to 1.3 | 1.01 to 1.3 | 1.01 to 1.3 | – | – | – | – | – | –
11 | C[C@H](Cc1nncn1C)c1cccc(NC(=O)c2cccc(CCO)n2)c1 [Compound 202, 6-(2-hydroxyethyl)-N-[3-[(2R)-1-(4-methyl-4H-1,2,4-triazol-3-yl)propan-2-yl]phenyl]pyridine-2-carboxamide] | – | 0.051 to 0.1 | 0.151 to 0.2 | 1.01 to 2.5 | 1.01 to 2.5 | 2.51 to 5 | 1.01 to 1.3 | 1.01 to 1.3 | 1.31 to 1.5 | – | – | – | – | – | –
12 | Cn1cnnc1C(F)(F)[C@](C)(F)c1cccc(N2Cc3c(cccc3C(F)(F)F)C2=O)c1 [Compound 296a, (R)-2-(3-(1,1,2-trifluoro-1-(4-methyl-4H-1,2,4-triazol-3-yl)propan-2-yl)phenyl)-4-(trifluoromethyl)isoindolin-1-one] | – | 0.151 to 0.2 | > 0.201 | 1.01 to 2.5 | 1.01 to 2.5 | 2.51 to 5 | 1.01 to 1.3 | 1.01 to 1.3 | 1.01 to 1.3 | – | – | – | – | – | –
13 | Cn1cnnc1[C@@H]1C[C@@H]1c1cccc(N2Cc3c(ccnc3C(F)(F)F)C2=O)c1 [Compound 369, 2-{3-[(1S,2R)-2-(4-methyl-4H-1,2,4-triazol-3-yl)cyclopropyl]phenyl}-4-(trifluoromethyl)-1H,2H,3H-pyrrolo[3,4-c]pyridin-1-one] | – | – | – | – | – | – | – | – | – | 1.01 to 2.5 | 1.01 to 2.5 | 1.01 to 2.5 | 1.01 to 1.3 | 1.01 to 1.3 | 1.01 to 1.3
14 | Cc1cc2c(c(C3CC3)n1)CN(c1cccc([C@H](C)Cc3nncn3C)c1)C2=O [Compound 372, 4-cyclopropyl-6-methyl-2-{3-[(2R)-1-(4-methyl-4H-1,2,4-triazol-3-yl)propan-2-yl]phenyl}-1H,2H,3H-pyrrolo[3,4-c]pyridin-1-one] | – | – | – | – | – | – | – | – | – | 1.01 to 2.5 | 1.01 to 2.5 | 2.51 to 5 | 1.01 to 1.3 | 1.01 to 1.3 | 1.01 to 1.3
15 | CNCc1ccc(C(=O)Nc2cccc([C@H](C)Cc3nncn3C)c2)nc1C1CC1 [Compound 376, (R)-6-cyclopropyl-N-(3-(1-(4-methyl-4H-1,2,4-triazol-3-yl)propan-2-yl)phenyl)-5-((methylamino)methyl)picolinamide] | – | – | – | – | – | – | – | – | – | 1.01 to 2.5 | 2.51 to 5 | > 7.5 | 1.01 to 1.3 | 1.31 to 1.5 | 1.51 to 1.75
